Reference: patent US12558366B2, “Bacterial DNA gyrase inhibitors and methods of use thereof” (THE FLORIDA INTERNATIONAL UNIVERSITY BOARD OF TRUSTEES, priority 2021, dated 2026)
≈ marks a conversion by molar mass, not a printed value. Where two headings read alike, the source gives them in different places.

What was measured:
Mtb DNA gyrase = Mtb DNA gyrase (Mycobacterium tuberculosis, UniProt P9WG45+P9WG47); assay: Mtb DNA gyrase inhibition; format: biochemical
MRSA (ATCC BAA44) = assay: microbe, parasite or virus in culture; format: cell-based, S. aureus
Description: (§1) Antibacterial minimum inhibitory concentrations (MICs) were obtained from three independent experiments using broth microdilution methods in 96-well plates according to Clinical and Laboratory Standards Institute guidelines. Cells were culture from singles colonies in MHIIB medium for 24 h at 37° C. in agitation (200 RPM). The cultures were then diluted using the same media to reach an OD600 of 0.1. Then, 50 μL of the diluted cultures were added to the plates holding 50 μL of serially diluted compounds in MHIIB. The plates were incubated at 37° C. for 20 h. The starting inoculum was fixated to 10^5 colony-forming units per ml.

E. coli DNA gyrase [1] = target: T1, E. coli DNA gyrase (Escherichia coli, UniProt P0AES4+P0AES6); assay: E. coli DNA gyrase inhibition (agarose gel-based and/or SDFQ-based, not specified per value); format: biochemical
T1 sequence (P0AES4 whole entry, one chain of several): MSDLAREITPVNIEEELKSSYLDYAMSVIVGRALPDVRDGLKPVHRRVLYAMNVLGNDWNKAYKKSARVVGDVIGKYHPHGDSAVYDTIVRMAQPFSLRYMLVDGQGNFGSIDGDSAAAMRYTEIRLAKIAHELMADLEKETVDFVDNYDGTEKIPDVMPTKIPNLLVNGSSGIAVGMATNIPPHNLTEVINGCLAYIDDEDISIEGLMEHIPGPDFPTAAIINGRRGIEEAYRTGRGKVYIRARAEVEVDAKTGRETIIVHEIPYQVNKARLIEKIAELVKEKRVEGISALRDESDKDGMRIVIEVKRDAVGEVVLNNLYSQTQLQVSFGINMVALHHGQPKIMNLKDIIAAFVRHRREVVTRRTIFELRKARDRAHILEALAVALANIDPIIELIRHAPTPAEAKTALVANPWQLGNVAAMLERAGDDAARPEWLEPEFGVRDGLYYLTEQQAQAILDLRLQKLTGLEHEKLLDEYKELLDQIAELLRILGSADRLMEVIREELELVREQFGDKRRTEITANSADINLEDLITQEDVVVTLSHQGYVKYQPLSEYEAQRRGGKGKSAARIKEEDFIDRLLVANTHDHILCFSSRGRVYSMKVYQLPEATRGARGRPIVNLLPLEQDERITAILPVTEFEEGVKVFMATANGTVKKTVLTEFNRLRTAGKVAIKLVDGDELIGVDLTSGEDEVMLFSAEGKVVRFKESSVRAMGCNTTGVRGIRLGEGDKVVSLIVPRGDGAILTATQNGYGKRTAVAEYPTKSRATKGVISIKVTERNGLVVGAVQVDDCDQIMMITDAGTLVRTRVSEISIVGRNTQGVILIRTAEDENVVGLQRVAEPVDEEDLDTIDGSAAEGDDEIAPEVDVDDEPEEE

S. aureus (ATCC 14775) = assay: Minimum inhibitory concentration, S. aureus; format: cell-based
Description: as §1

Mtb = Mtb inhibition (antibacterial activity); format: cell-based, Mycobacterium tuberculosis; design: % Mtb inhibition: concentration or dose not given beside the values; settings: for % Mtb inhibition: Table 5
B. subtilis (ATCC 6633) = assay: Minimum inhibitory concentration, B. subtilis; format: cell-based; settings: for MIC: Bacillus subtilis, ATCC6633, Tables 3a-3c
Description: as §1

E. coli imp = assay: microbe, parasite or virus in culture; format: cell-based; settings: for MIC: Escherichia coli
Description: as §1

E. coli DNA gyrase [2] = target: T1, E. coli DNA gyrase; assay: Agarose gel-based DNA gyrase inhibition assays; format: biochemical
Description: 100 ng of DNA gyrase was used to supercoil the rx pAB1 in the presence of different concentrations of a gyrase inhibitor. […] Samples were analyzed by electrophoresis in 1% w/v agarose gels followed by ethidium bromide staining and photographed under UV light.

E. coli (ATCC 25922) = assay: Minimum inhibitory concentration, E. coli; format: cell-based; settings: for MIC: Escherichia coli, ATCC25922, read-out: Minimum Inhibitory Concentration E. coli
Description: as §1

DNA = DNA binding, intercalation and photo-induced crosslinking
[3] = Table 2 values, read-out: IC50 ( ≤15 μM) IC50
[4] = read-out: Minimum Inhibitory Concentration E. coli imp

Chain of Mtb DNA gyrase (P9WG45 whole entry): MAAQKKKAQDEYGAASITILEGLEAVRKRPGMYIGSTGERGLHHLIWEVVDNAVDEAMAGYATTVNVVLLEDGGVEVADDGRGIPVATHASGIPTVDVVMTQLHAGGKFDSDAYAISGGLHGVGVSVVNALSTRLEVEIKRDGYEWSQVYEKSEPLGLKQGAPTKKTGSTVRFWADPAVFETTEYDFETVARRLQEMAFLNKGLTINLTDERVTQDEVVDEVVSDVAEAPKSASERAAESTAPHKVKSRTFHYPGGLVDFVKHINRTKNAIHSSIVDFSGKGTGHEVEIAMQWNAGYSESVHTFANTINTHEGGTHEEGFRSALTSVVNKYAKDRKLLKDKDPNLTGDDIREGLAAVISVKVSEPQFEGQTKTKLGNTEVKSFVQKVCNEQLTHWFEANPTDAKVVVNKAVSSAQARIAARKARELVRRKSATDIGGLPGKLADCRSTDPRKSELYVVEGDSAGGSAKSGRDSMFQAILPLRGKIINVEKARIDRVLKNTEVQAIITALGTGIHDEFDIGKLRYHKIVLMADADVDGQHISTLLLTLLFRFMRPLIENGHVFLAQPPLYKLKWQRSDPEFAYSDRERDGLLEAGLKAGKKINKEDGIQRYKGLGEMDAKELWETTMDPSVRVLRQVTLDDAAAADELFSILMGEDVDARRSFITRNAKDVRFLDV
Chain of Mtb DNA gyrase (P9WG47 whole entry): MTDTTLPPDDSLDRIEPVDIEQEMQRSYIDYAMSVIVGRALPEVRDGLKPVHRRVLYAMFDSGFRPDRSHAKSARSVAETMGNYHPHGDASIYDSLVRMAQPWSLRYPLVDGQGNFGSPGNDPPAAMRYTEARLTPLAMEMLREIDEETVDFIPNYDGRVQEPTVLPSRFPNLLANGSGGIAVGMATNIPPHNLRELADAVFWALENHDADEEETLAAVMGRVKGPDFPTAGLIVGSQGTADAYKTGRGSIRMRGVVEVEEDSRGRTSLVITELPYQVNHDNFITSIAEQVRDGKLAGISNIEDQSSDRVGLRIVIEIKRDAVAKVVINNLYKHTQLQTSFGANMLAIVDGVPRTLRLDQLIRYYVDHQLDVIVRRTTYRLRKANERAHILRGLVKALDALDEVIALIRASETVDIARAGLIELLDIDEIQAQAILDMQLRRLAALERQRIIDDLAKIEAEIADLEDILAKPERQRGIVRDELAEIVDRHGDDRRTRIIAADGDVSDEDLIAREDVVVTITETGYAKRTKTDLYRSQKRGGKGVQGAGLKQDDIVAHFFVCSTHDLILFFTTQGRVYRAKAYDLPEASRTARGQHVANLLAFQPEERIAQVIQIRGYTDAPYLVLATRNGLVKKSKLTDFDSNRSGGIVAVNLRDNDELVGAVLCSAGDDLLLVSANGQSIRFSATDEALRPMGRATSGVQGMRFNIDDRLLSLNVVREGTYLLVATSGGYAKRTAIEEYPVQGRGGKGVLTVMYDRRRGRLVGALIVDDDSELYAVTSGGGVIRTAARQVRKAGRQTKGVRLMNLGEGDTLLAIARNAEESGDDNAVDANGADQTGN

## CNC(=O)[C@H]1O[C@@H](n2cnc3c(NCc4ccc(N)cc4)ncnc32)[C@H](O)[C@@H]1O [AB-MECA, reference compound]
Mtb DNA gyrase
  inhibition of Mtb DNA gyrase activities: did not inhibit

## Cc1cc(C)c2c(c1)C(=NNc1ccc(C(=O)O)cc1)C(O)=N2 [Compound 9, 4-[2-(5,7-Dimethyl-2-oxoindol-3-yl)hydrazinyl]benzoic acid]
MRSA (ATCC BAA44)
  growth inhibition of MRSA: strongly inhibited the growth
E. coli DNA gyrase [1]; [3]
  IC50: 1.69 µM
S. aureus (ATCC 14775)
  growth inhibition of S. aureus: strongly inhibited the growth

## CSc1nc(SCC(=O)O)c2sc3nc(-c4ccccc4)c4c(c3c2n1)CCC4 [Compound 19]
E. coli DNA gyrase [1]; [3]
  IC50: 3.55 µM
Mtb
  activity against Mtb: Mtb active hits

## Cc1c(CCC(=O)O)c(=O)oc2cc3occ(-c4ccc(Cl)cc4)c3cc12 [Compound 25]
E. coli DNA gyrase [1]; [3]
  IC50: 10.6 µM
B. subtilis (ATCC 6633)
  MIC: 25 µM (≈ 9.57 µg/mL)
E. coli imp; [4]
  MIC: 25 µM
Mtb
  % Mtb inhibition: 0.8%

## O=C(O)CCN1C(=O)/C(=C/c2ccc(-c3nc4ccccc4s3)o2)SC1=S [Compound 27]
E. coli DNA gyrase [1]; [3]
  IC50: 1.74 µM

## O=C(O)CCCCCN1C(=O)/C(=C\c2ccc(-c3ccc(Cl)cc3)o2)SC1=S [Compound 36]
E. coli DNA gyrase [1]; [3]
  IC50: 7.42 µM

## CC(C)(CS(=O)(=O)[O-])NC(=O)CC[N+](C)(C)CCO [Compound 42]
E. coli DNA gyrase [1]; [3]
  IC50: 2.18 µM

## O=C(O)c1cccc(-c2ccc(/C=c3/sc4nc5ccccc5n4c3=O)o2)c1 [Compound 47]
E. coli DNA gyrase [1]; [3]
  IC50: 1.87 µM
Mtb
  activity against Mtb: Mtb active hits

## COc1cc2ccccc2cc1C(=O)NC(=S)Nc1ccc(C(=O)O)cc1 [Compound 72]
E. coli DNA gyrase [1]; [3]
  IC50: 12.4 µM

## Cc1cc(C)c2sc(NC(=O)C3CC3)nc2c1 [Compound 73]
E. coli DNA gyrase [1]; [3]
  IC50: 7.86 µM

## Cc1c2cc(O)c(=O)cc-2oc2cc(O)c(O)cc12 [Compound 75]
E. coli DNA gyrase [1]; [3]
  IC50: 5.28 µM

## CNC(=O)[C@H]1O[C@@H](n2cnc3c(NCc4cccc(I)c4)nc(Cl)nc32)[C@H](O)[C@@H]1O [Compound 76]
E. coli DNA gyrase [1]; [3]
  IC50: 2.53 µM

## O=C(Nc1cccc(C2=NCCN2)c1)Nc1cccc(C2=NCCN2)c1 [Compound 79]
E. coli DNA gyrase [2]; 200 μM of compounds
  inhibition of E. coli DNA gyrase activities: completely inhibited
E. coli imp; [4]
  MIC: 50 µM

## Cc1cccc2c1N=C(O)C2=NNc1ccc(S(C)(=O)=O)cc1 [Compound 109]
E. coli DNA gyrase [2]; 50 μM of compounds
  inhibition of E. coli DNA gyrase activities: completely inhibited

## O=C1Nc2ccc(Br)cc2C1=NNc1ccc(C(=O)O)cc1 [Compound 111]
B. subtilis (ATCC 6633)
  MIC: 100 µM (≈ 36 µg/mL)
E. coli DNA gyrase [2]; 50 μM of compounds
  inhibition of E. coli DNA gyrase activities: completely inhibited

## Cc1c(CC(=O)O)c(=O)oc2c(C)c3occ(-c4ccc(Br)cc4)c3cc12 [Compound 117]
E. coli (ATCC 25922)
  MIC: > 200 µM
B. subtilis (ATCC 6633)
  MIC: > 200 µM
E. coli imp; [4]
  MIC: > 200 µM
Mtb
  % Mtb inhibition: 24.7%

## Cc1c(CCC(=O)O)c(=O)oc2c(C)c3occ(-c4ccc(Cl)cc4)c3cc12 [Compound 120]
E. coli (ATCC 25922)
  MIC: > 200 µM
B. subtilis (ATCC 6633)
  MIC: > 200 µM
E. coli imp; [4]
  MIC: > 200 µM
Mtb
  % Mtb inhibition: 18.7%

## Cc1c(CCC(=O)O)c(=O)oc2c(C)c3occ(-c4ccccc4)c3cc12 [Compound 121]
E. coli (ATCC 25922)
  MIC: > 200 µM
E. coli DNA gyrase [2]; 50 μM of compounds
  inhibition of E. coli DNA gyrase activities: completely inhibited
E. coli imp; [4]
  MIC: 100 µM
Mtb
  % Mtb inhibition: 36.7%

## Cc1c(CCC(=O)O)c(=O)oc2c(C)c3occ(-c4ccc(F)cc4)c3cc12 [Compound 123]
E. coli (ATCC 25922)
  MIC: > 200 µM
E. coli imp; [4]
  MIC: > 200 µM
Mtb
  % Mtb inhibition: 31.8%

## Cc1c(CCC(=O)O)c(=O)oc2c(C)c3occ(-c4ccc(N5CCCC5)cc4)c3cc12 [Compound 125]
MRSA (ATCC BAA44)
  growth inhibition of MRSA: did not inhibit the growth
Mtb
  % Mtb inhibition: 10.2%
S. aureus (ATCC 14775)
  growth inhibition of S. aureus: did not inhibit the growth

## O=C(O)c1ccc(/N=N/C2C(O)=Nc3ccc(F)cc32)cc1 (stereo not drawn) [Compound 127]
Mtb
  activity against Mtb: Mtb active hits

## Cc1cccc2c1N=C(O)C2/N=N/c1ccc(C(=O)O)cc1 (stereo not drawn) [Compound 128]
Mtb
  activity against Mtb: Mtb active hits

## Cc1cc(NN=Cc2ccc([N+](=O)[O-])o2)nc2ccccc12 [Compound 134]
MRSA (ATCC BAA44); Staphylococcus aureus, read-out: Minimum Inhibitory Concentration S. aureus MRSA
  MIC: 200 µM (≈ 59.3 µg/mL)
S. aureus (ATCC 14775); Staphylococcus aureus, ATCC14775, Tables 3a-3c, read-out: Minimum Inhibitory Concentration S. aureus
  MIC: 200 µM (≈ 59.3 µg/mL)

## O=C(O)C(Cc1ccccc1)N1C(=O)/C(=C\C=C\c2ccco2)SC1=S (stereo not drawn) [Compound 157]
E. coli DNA gyrase [1]; [3]
  IC50: 10 µM
E. coli imp; [4]
  MIC: 100 µM

## O=[N+]([O-])c1cc(/C=N/Nc2nc3ccccc3[nH]2)c(O)cc1O [Compound 159]
E. coli DNA gyrase [1]; [3]
  IC50: 6.25 µM

## O=C(/C=C/c1ccco1)Nc1cccc2cccnc12 [Compound 164]
E. coli imp; [4]
  MIC: 100 µM

## N#C/C(=C\c1coc2ccc(O)cc2c1=O)C(=O)/N=c1\[nH]c2ccccc2s1 [Compound 165]
E. coli DNA gyrase [1]; [3]
  IC50: 6.25 µM

## O=C(O)C(c1ccccc1)N1C(=O)/C(=C\c2ccc(-c3cccc(Cl)c3)o2)SC1=S (stereo not drawn) [Compound 176]
E. coli DNA gyrase [1]; [3]
  IC50: 2 µM

## COc1cc(/C=N/N=c2\[nH]c3ccccc3s2)cc([N+](=O)[O-])c1O [Compound 178]
E. coli DNA gyrase [1]; [3]
  IC50: 1.56 µM
Mtb
  activity against Mtb: Mtb active hits

## O=C(NN1C(=O)/C(=C\C=C\c2ccco2)SC1=S)c1ccccc1O [Compound 180]
E. coli imp; [4]
  MIC: 100 µM

## O=C1/C(=C\c2ccc(O)c([N+](=O)[O-])c2)SC(=S)N1Cc1ccccc1 [Compound 192]
E. coli DNA gyrase [1]; [3]
  IC50: 8 µM

## O=C1NC(=S)SC1=Cc1cc(Cl)cc(Cl)c1O [Compound 207]
E. coli DNA gyrase [1]
  IC50: 50 to 200 µM
E. coli DNA gyrase [2]; 50 μM of compounds
  inhibition of E. coli DNA gyrase activities: inhibited
E. coli DNA gyrase [2]; 200 μM of compounds
  inhibition of E. coli DNA gyrase activities: completely inhibited

## NN=C1c2ccccc2C(=O)C1C(=O)C(c1ccccc1)c1ccccc1 (stereo not drawn) [Compound 211]
E. coli DNA gyrase [1]
  IC50: 50 to 200 µM
E. coli DNA gyrase [2]; 50 μM of compounds
  inhibition of E. coli DNA gyrase activities: inhibited
E. coli DNA gyrase [2]; 200 μM of compounds
  inhibition of E. coli DNA gyrase activities: completely inhibited

## Brc1ccc2c(c1)-c1ccccc1C1=NCCN12 [Compound 217]
DNA
  DNA intercalator: DNA intercalators

## C[n+]1c(-c2ccc(C=NNC(=O)c3ccc(C(=O)NN=Cc4ccc(-c5cn6ccccc6[n+]5C)cc4)cc3)cc2)cn2ccccc21 [Compound 229]
E. coli DNA gyrase [1]
  IC50: 25 to 50 µM

## CN(C)c1ccc(/C=c2\c3ccccc3n3c2cc(-c2ccccc2)[n+]3C)cc1 [Compound 236]
DNA
  DNA intercalator: DNA intercalator

## COc1ccc2c(c1)/c(=C\c1ccc(N(C)C)cc1)c1cc(-c3ccccc3)[n+](C)n12.O=S(=O)([O-])C(F)(F)F [Compound 237]
DNA
  DNA intercalator: DNA intercalators

## CCOC(=O)c1cc2c(=Cc3ccc(N(C)C)cc3)c3ccccc3n2[n+]1C.O=S(=O)([O-])C(F)(F)F [Compound 239]
DNA
  DNA intercalator: DNA intercalators

## COc1cccc2nc3c(C(=O)NCCN(C)C)cccc3cc12.Cl [Compound 240]
DNA
  DNA intercalator: DNA intercalators

## CN(C)CCNC(=O)c1cccc2nc3cccc(F)c3nc12.Cl [Compound 241]
DNA
  DNA intercalator: DNA intercalators

## Nc1ccc2cc3ccc(N)cc3nc2c1 [Compound 246]
DNA
  DNA intercalator: DNA intercalators

## Nc1c2ccccc2nc2ccccc12 [Compound 247]
DNA
  DNA intercalator: DNA intercalators

## CN1/C(=C/c2cc[n+](C)c3ccccc23)Sc2ccccc21.Cc1ccc(S(=O)(=O)[O-])cc1 [Compound 248]
DNA
  DNA intercalator: DNA intercalators

## CN(C)c1ccc2cc3ccc(N(C)C)cc3nc2c1 [Compound 249]
DNA
  DNA intercalator: DNA intercalators

## O=C1OC2(c3ccccc31)c1cc(I)c(O)c(I)c1Oc1c2cc(I)c(O)c1I [Compound 253, Erythrosin B]
E. coli DNA gyrase [1]; [3]
  IC50: 3.12 µM

## CCOc1ccc2nc3cc(N)ccc3c(N)c2c1 [Compound 257]
DNA
  DNA intercalator: DNA intercalators

## CSC1SC2C(=O)N(C)C(C(C)C)C(=O)OCC(NC(=O)c3cnc4ccccc4n3)C(=O)NC(C)C(=O)N(C)C1C(=O)N(C)C(C(C)C)C(=O)OCC(NC(=O)c1cnc3ccccc3n1)C(=O)NC(C)C(=O)N2C (stereo not drawn) [Compound 258]
DNA
  DNA intercalator: DNA intercalators

## CN1C[C@H](CNC(=O)OCc2ccccc2)C[C@@H]2c3cccc4c3c(cn4C)C[C@H]21 [Metergoline, reference compound]
E. coli DNA gyrase [2]; at 100 and 200 μM
  inhibition of gyrase activities: inhibits gyrase activities

## CCCCCCCCOC(=O)c1cc(O)c(O)c(O)c1 [Octyl gallate]
E. coli imp; read-out: MIC (μg/ml) E. coli imp
  MIC: 14.1 µg/mL

## O=c1ccc2cc3ccoc3cc2o1 [psoralen, reference compound]
E. coli DNA gyrase [1]
  inhibition of E. coli DNA gyrase activities: not a gyrase inhibitor

## Biphenyl gallate
MRSA (ATCC BAA44); Table 7
  MIC (μg/ml) S. aureus (MRSA) ATCC BAA44: 16 µg/mL
E. coli (ATCC 25922); Table 7
  MIC (μg/ml) E. coli ATCC 25922: 517.29 µg/mL
B. subtilis (ATCC 6633); Table 7
  MIC (μg/ml) B. subtilis ATCC 6633: 16 µg/mL
E. coli imp; Table 7
  MIC (μg/ml) E. coli imp: 36.43 µg/mL
S. aureus (ATCC 14775); Table 7
  MIC (μg/ml) S. aureus ATCC 14775: 16 µg/mL

## mithramycin [Compound 225, reference compound]
E. coli DNA gyrase [1]
  inhibition of E. coli DNA gyrase activities: strongly inhibited
E. coli DNA gyrase [2]; 50 μM of compounds
  inhibition of E. coli DNA gyrase activities: completely inhibited
E. coli DNA gyrase [2]; 200 μM of compounds
  inhibition of E. coli DNA gyrase activities: completely inhibited
